Laboratory results published in US20230312481A1, “SUBSTITUTED (PHTHALAZIN-1-YLMETHYL)UREAS, SUBSTITUTED N-(PHTHALAZIN-1-YLMETHYL)AMIDES, AND ANALOGUES THEREOF” (priority 2020, published 2023).

These compounds were tested on HBV rcDNA in HepDE19 cells (assay: HepDE19 assay with bDNA quantitation of HBV rcDNA). Details: HepDE19 cells, 7 day incubation, rcDNA measured by Quantigene 2.0 bDNA assay; top concentration 25 µM; read-out: DE-19bDNA EC50.
Assay type: cell-based, hepatitis B virus
Description: HepDE19 Assay With bDNA Quantitation of HBV rcDNA
HepDE19 (50,000 cells/well) were plated in 96-well collagen-coated tissue-culture treated microtiter plates in DMEM/F12 medium supplemented with 10% fetal bovine serum, 1% penicillin-streptomycin and 1 µg/mL tetracycline and incubated in a humidified incubator at 37° C. and 5% CO2 overnight. Next day, the cells were switched to fresh medium without tetracycline and incubated for 4 hours at 37° C. and 5% CO2. […] The final DMSO concentration in the assay was 0.5%. The plates were incubated for 7 days in a humidified incubator at 37° C. and 5% CO2. Following a 7 day-incubation, the level of rcDNA present in the inhibitor-treated wells was measured using a Quantigene 2.0 bDNA assay kit (Affymetrix, Santa Clara, CA) with HBV specific custom probe set and manufacturers instructions. Concurrently, the effect of compounds on cell viability was assessed using replicate plates, plated at a density of 5,000 cells/well and incubated for 4 days, to determine the ATP content as a measure of cell viability using the cell-titer glo reagent (CTG; Promega Corporation, Madison, WI) as per manufacturer’s instructions.
Representative compounds of the disclosure were tested for their abilities to inhibit formation of relaxed circular DNA (rcDNA) in a HepDE19 assay, as described elsewhere herein.

Question: With `CC(c1n[nH]c(=O)c2cc(F)c(F)cc12)N(C)C(=O)c1cc2c(C(F)F)cccn2c1` (single isomer, unassigned) [Compound 99, N-(1-(6,7-difluoro-4-oxo-3,4-dihydrophthalazin-1-yl)ethyl)-8-(difluoromethyl)-N-methylindolizine-2-carboxamide] as the compound, how does the EC50 read?
Answer: The EC50 was 10 nM.

Question: For `CC(c1n[nH]c(=O)c2cc(F)c(F)cc12)N(C)C(=O)c1ccc2ccn(C)c2c1` (single isomer, unassigned) [Compound 104, N-(1-(6,7-difluoro-4-oxo-3,4-dihydrophthalazin-1-yl)ethyl)-N,1-dimethyl-1H-indole-6-carboxamide], which EC50 is on record?
Answer: The EC50 was greater than 25000 nM.

Question: `CC(c1n[nH]c(=O)c2cc(F)c(F)cc12)N(C)C(=O)c1ccc2ocnc2c1` (single isomer, unassigned) [Compound 88, N-(1-(6,7-difluoro-4-oxo-3,4-dihydrophthalazin-1-yl)ethyl)-N-methylbenzo[d]oxazole-5-carboxamide] was tested. Which EC50 did it give?
Answer: Its EC50 is greater than 25000 nM.

Question: `CC(c1n[nH]c(=O)c2cc(F)c(F)cc12)N(C)C(=O)c1cc(F)c(Cl)c(F)c1` (single isomer, unassigned) [Compound 94, 4-chloro-N-(1-(6,7-difluoro-4-oxo-3,4-dihydrophthalazin-1-yl)ethyl)-3,5-difluoro-N-methylbenzamide] was tested. Which EC50 did it give?
Answer: Its EC50 is 13300 nM.

Question: Which EC50 does the source give for `CC(c1n[nH]c(=O)c2cc(F)c(F)cc12)N(C)C(=O)c1cc2c(C(F)F)cc(F)cc2[nH]1` (single isomer, unassigned) [Compound 97, N-(1-(6,7-difluoro-4-oxo-3,4-dihydrophthalazin-1-yl)ethyl)-4-(difluoromethyl)-6-fluoro-N-methyl-1H-indole-2-carboxamide] here?
Answer: The EC50 was 20 nM.

Question: How did the EC50 turn out when `CC(c1n[nH]c(=O)c2cc(F)c(F)cc12)N(C)C(=O)c1cc2c(C(F)F)cc(F)cc2[nH]1` (single isomer, unassigned) [Compound 96, N-(1-(6,7-difluoro-4-oxo-3,4-dihydrophthalazin-1-yl)ethyl)-4-(difluoromethyl)-6-fluoro-N-methyl-1H-indole-2-carboxamide] was run?
Answer: Its EC50 is 2520 nM.

Question: For `CC(c1n[nH]c(=O)c2cc(F)c(F)cc12)N(C)C(=O)c1ccc2scnc2c1` (single isomer, unassigned) [Compound 84, N-(1-(6,7-difluoro-4-oxo-3,4-dihydrophthalazin-1-yl)ethyl)-N-methylbenzo[d]thiazole-5-carboxamide], which EC50 is on record?
Answer: Its EC50 is greater than 25000 nM.

Question: Which EC50 does the source give for `CC(c1n[nH]c(=O)c2cc(F)c(F)cc12)N(C)C(=O)c1ccc2ncsc2c1` (single isomer, unassigned) [Compound 87, N-(1-(6,7-difluoro-4-oxo-3,4-dihydrophthalazin-l-yl)ethyl)-N-methylbenzo[d]thiazole-6-carboxamide] here?
Answer: Its EC50 is 5570 nM.

Question: `CC(c1n[nH]c(=O)c2cc(F)c(F)cc12)N(C)C(=O)c1cc2sccc2[nH]1` (single isomer, unassigned) [Compound 80, N-(1-(6,7-difluoro-4-oxo-3,4-dihydrophthalazin-1-yl)ethyl)-N-methyl-4H-thieno[3,2-b]pyrrole-5-carboxamide] was tested. Which EC50 did it give?
Answer: The EC50 was 14100 nM.

Question: For `CC(c1n[nH]c(=O)c2cc(F)c(F)cc12)N(C)C(=O)c1ccc2[nH]ncc2c1` (single isomer, unassigned) [Compound 110, N-(1-(6,7-difluoro-4-oxo-3,4-dihydrophthalazin-1-yl)ethyl)-N-methyl-1H-indazole-5-carboxamide], which EC50 is on record?
Answer: The EC50 was greater than 25000 nM.

Question: How did the EC50 turn out when `CC(c1n[nH]c(=O)c2cc(F)c(F)cc12)N(C)C(=O)c1cc(F)c(C(F)F)c(F)c1` (single isomer, unassigned) [Compound 109, N-(1-(6,7-difluoro-4-oxo-3,4-dihydrophthalazin-1-yl)ethyl)-4-(difluoromethyl)-3,5-difluoro-N-methylbenzamide] was run?
Answer: The EC50 was 110 nM.

Question: How did the EC50 turn out when `CC(c1n[nH]c(=O)c2cc(F)c(F)cc12)N(C)C(=O)c1ccc2cn[nH]c2c1` (single isomer, unassigned) [Compound 112, N-(1-(6,7-difluoro-4-oxo-3,4-dihydrophthalazin-1-yl)ethyl)-N-methyl-1H-indazole-6-carboxamide] was run?
Answer: The EC50 was greater than 25000 nM.

Same assay, conditions: Hepatitis B virus, HepDE19, 168 h, HepDE19 cells, 7 day incubation, rcDNA measured by Quantigene 2.0 bDNA assay; top concentration 25 µM; read-out: DE-19bDNA EC50

Question: With `CC(c1nn(C)c(=O)c2cc(F)c(F)cc12)N(C)C(=O)Nc1ccc(F)c(Cl)c1` (racemic) [Compound 22, 3-(3-chloro-4-fluoro-phenyl)-1-[1-(6,7-difluoro-3-methyl-4-oxo-phthalazin-1-yl)ethyl]-1-methyl-urea] as the compound, how does the EC50 read?
Answer: Its EC50 is 26 nM.

Question: Which EC50 does the source give for `CC(C)CN(C(=O)NC1CC1)C(C)c1nn(C)c(=O)c2cc(F)c(F)cc12` (racemic) [Compound 33, 3-cyclopropyl-1-(1-(6,7-difluoro-3-methyl-4-oxo-3,4-dihydrophthalazin-1-yl)ethyl)-1-isobutylurea] here?
Answer: Its EC50 is 6300 nM.

Question: How did the EC50 turn out when `CC(C)CN(C(=O)Nc1ccc(F)c(Cl)c1)C(C)c1n[nH]c(=O)c2cc(F)c(F)cc12` (racemic) [Compound 27, 3-(3-chloro-4-fluorophenyl)-1-(1-(6,7-difluoro-4-oxo-3,4-dihydrophthalazin-1-yl)ethyl)-1-isobutylurea] was run?
Answer: The EC50 was 2 nM.

Question: How did the EC50 turn out when `CC(c1n[nH]c(=O)c2cc(Cl)ccc12)N(CCCO)C(=O)Nc1ccc(F)cc1` (racemic) [Compound 14, 1-(1-(6-chloro-4-oxo-3,4-dihydrophthalazin-1-yl)ethyl)-3-(4-fluorophenyl)-1-(3-hydroxypropyl)urea] was run?
Answer: The EC50 was 110 nM.

Question: Which EC50 does the source give for `CC(c1n[nH]c(=O)c2ccccc12)N(C)C(=O)Nc1ccc(F)c(Cl)c1` (racemic) [Compound 1, 3-(3-chloro-4-fluoro-phenyl)-1-methyl-1-[1-(4-oxo-3H-phthalazin-1-yl)ethyl]urea] here?
Answer: Its EC50 is 240 nM.

Question: How did the EC50 turn out when `CCN(C(=O)c1cc2c(F)c(F)ccc2[nH]1)C(C)c1n[nH]c(=O)c2cc(F)c(F)cc12` (racemic) [Compound 49, N-(1-(6,7-difluoro-4-oxo-3,4-dihydrophthalazin-1-yl)ethyl)-N-ethyl-4,5-difluoro-1H-indole-2-carboxamide] was run?
Answer: The EC50 was 25 nM.

Question: `CC(c1n[nH]c(=O)c2cc(F)c(F)cc12)N(C)C(=O)c1ccc(Br)c(F)c1` (racemic) [Compound 63, 4-bromo-N-(1-(6,7-difluoro-4-oxo-3,4-dihydrophthalazin-1-yl)ethyl)-3-fluoro-N-methylbenzamide] was tested. Which EC50 did it give?
Answer: Its EC50 is 60 nM.

Question: `CC(c1n[nH]c(=O)c2cc(F)c(F)cc12)N(C)C(=O)c1ccc(F)c(C(F)F)c1` (racemic) [Compound 72, N-(1-(6,7-difluoro-4-oxo-3,4-dihydrophthalazin-1-yl)ethyl)-3-(difluoromethyl)-4-fluoro-N-methylbenzamide] was tested. Which EC50 did it give?
Answer: Its EC50 is 340 nM.

Question: For `CC(C)CN(C(=O)Nc1ccc(F)cc1)C(C)c1n[nH]c(=O)c2ccccc12` (racemic) [Compound 19, 3-(4-fluorophenyl)-1-isobutyl-1-(1-(4-oxo-3,4-dihydrophthalazin-1-yl)ethyl)urea], which EC50 is on record?
Answer: The EC50 was 48 nM.

Question: With `CCN(C(=O)c1cc2ccccc2[nH]1)C(C)c1n[nH]c(=O)c2cc(F)c(F)cc12` (racemic) [Compound 48, N-(1-(6,7-difluoro-4-oxo-3,4-dihydrophthalazin-1-yl)ethyl)-N-ethyl-1H-indole-2-carboxamide] as the compound, how does the EC50 read?
Answer: The EC50 was 60 nM.

Question: With `CC(c1n[nH]c(=O)c2cc(F)ccc12)N(C)C(=O)Nc1ccc(F)cc1` (racemic) [Compound 18, 1-(1-(6-fluoro-4-oxo-3,4-dihydrophthalazin-1-yl)ethyl)-3-(4-fluorophenyl)-1-methylurea] as the compound, how does the EC50 read?
Answer: Its EC50 is 500 nM.

Question: For `CC(c1n[nH]c(=O)c2cc(F)c(F)cc12)N(C)C(=O)[C@@H]1Cc2ccccc2N1` (stereo partly drawn) [Compound 78, (2S)-N-(1-(6,7-difluoro-4-oxo-3,4-dihydrophthalazin-1-yl)ethyl)-N-methylindoline-2-carboxamide], which EC50 is on record?
Answer: The EC50 was 3640 nM.

Question: Which EC50 does the source give for `CC(C)CN(C(=O)Nc1ccc(F)cc1)C(C)c1nn(C)c(=O)c2cc(F)c(F)cc12` (racemic) [Compound 24, 1-(1-(6,7-difluoro-3-methyl-4-oxo-3,4-dihydrophthalazin-1-yl)ethyl)-3-(4-fluorophenyl)-1-isobutylurea] here?
Answer: The EC50 was 7 nM.

Question: How did the EC50 turn out when `CC(c1n[nH]c(=O)c2cc(F)c(F)cc12)N(C)C(=O)c1cc2c(F)cccc2[nH]1` (racemic) [Compound 53, N-(1-(6,7-difluoro-4-oxo-3,4-dihydrophthalazin-1-yl)ethyl)-4-fluoro-N-methyl-1H-indole-2-carboxamide] was run?
Answer: Its EC50 is 83 nM.

Question: For `CC(c1n[nH]c(=O)c2cc(F)c(F)cc12)N(C)C(=O)c1ccc(Br)cc1` (racemic) [Compound 65, 4-bromo-N-(1-(6,7-difluoro-4-oxo-3,4-dihydrophthalazin-1-yl)ethyl)-N-methylbenzamide], which EC50 is on record?
Answer: Its EC50 is 60 nM.

Same assay, conditions: Hepatitis B virus, HepDE19, 168 h, read-out: DE-19bDNA EC50

Question: With `C[C@H](c1n[nH]c(=O)c2cc(F)c(F)cc12)N(C)C(=O)c1cc2sc(Cl)cc2[nH]1` [Compound 79, (R)-2-chloro-N-(1-(6,7-difluoro-4-oxo-3,4-dihydrophthalazin-1-yl)ethyl)-N-methyl-4H-thieno[3,2-b]pyrrole-5-carboxamide] as the compound, how does the EC50 read?
Answer: The EC50 was 30 nM.

Question: How did the EC50 turn out when `C[C@H](c1n[nH]c(=O)c2cc(F)c(F)cc12)N(C)C(=O)Nc1ccc(F)c(Cl)c1` (single isomer, unassigned) [Compound 32] was run?
Answer: The EC50 was 21 nM.

Question: `CC(C)CN(C(=O)Nc1ccccc1)C(C)c1n[nH]c(=O)c2cc(F)c(F)cc12` (single isomer, unassigned) [Compound 39, 1-(1-(6,7-difluoro-4-oxo-3,4-dihydrophthalazin-1-yl)ethyl)-1-isobutyl-3-phenylurea] was tested. Which EC50 did it give?
Answer: The EC50 was 3700 nM.
